In one experiment the target is T1, human LXRβ (Homo sapiens, UniProt P55055).
T1 construct: biotin (biotinylated); made in house; host or cells: E. coli (crude extract)
T1 sequence (P55055 1-460): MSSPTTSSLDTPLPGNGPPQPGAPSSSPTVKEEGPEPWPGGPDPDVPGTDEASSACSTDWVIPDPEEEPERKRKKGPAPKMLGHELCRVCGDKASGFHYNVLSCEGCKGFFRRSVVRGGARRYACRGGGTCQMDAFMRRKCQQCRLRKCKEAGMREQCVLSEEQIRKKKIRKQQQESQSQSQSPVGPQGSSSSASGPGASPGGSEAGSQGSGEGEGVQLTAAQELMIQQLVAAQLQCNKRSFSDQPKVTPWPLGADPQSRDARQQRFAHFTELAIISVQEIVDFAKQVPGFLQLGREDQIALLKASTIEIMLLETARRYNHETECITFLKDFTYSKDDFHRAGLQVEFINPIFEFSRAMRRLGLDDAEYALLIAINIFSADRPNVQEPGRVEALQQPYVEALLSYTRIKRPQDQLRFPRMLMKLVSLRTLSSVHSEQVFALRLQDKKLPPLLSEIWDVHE
The experiment can be described thus: Ligand-binding test procedure for human LXRβ (3H T0901317 tracer, flash plates).

Another experiment addresses T2, human LXRα (Homo sapiens, UniProt Q13133).
T2 construct: biotin (biotinylated); made in house; host or cells: E. coli (crude extract)
T2 sequence (Q13133 1-447): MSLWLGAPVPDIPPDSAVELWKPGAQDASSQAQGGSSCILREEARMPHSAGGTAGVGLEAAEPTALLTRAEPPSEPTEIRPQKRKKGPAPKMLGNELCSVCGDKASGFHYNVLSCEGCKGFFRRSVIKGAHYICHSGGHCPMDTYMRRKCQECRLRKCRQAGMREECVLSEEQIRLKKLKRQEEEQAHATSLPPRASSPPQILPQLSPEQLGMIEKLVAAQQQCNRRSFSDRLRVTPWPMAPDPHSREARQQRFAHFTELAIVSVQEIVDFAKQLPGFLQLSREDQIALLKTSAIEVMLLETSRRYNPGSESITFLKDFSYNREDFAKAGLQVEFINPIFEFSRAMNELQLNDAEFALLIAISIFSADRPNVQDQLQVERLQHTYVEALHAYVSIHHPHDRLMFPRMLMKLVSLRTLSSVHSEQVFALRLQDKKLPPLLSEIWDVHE
The experiment can be described thus: Ligand-binding test procedure for human LXRα (3H T0901317 tracer, flash plates). The settings on record: biotinylated hLXRα, tracer 3H T0901317.

For a further experiment, the system named is ABCA1 gene. The experiment can be described thus: Quantitative analysis of ABCA1 gene regulation in THP-1 cells (real-time PCR). It counts as cell-based, human. The settings on record: Gene regulation by LXR (Human); differentiated THP-1 cells, 18 hrs, ABCA1 mRNA; read-out: EC50 ABCA1. Here is the method:
The compounds of formula (I) effect on the regulation of the ABCA1 gene was evaluated using the following procedure.
The THP-1 monocytic cell line (ATCC # TIB-202) was obtained from American Type Culture Collection (Manassas, Va.) and cultured in RPMI 1640 medium (Gibco, Carlsbad, Calif.) containing 10% FBS, 2 mM L-glutamine, and 55 uM beta-Mercaptoethanol (BME). […] Differentiated THP-1 cells were treated with test compounds or ligands dissolved in DMSO (Sigma, D-8779) in culture medium lacking phorbal ester. […] Unstimulated cells treated with vehicle were included as negative controls on each plate. An LXR agonist reference, N-(2,2,2-trifluoro-ethyl)-N-[4-(2,2,2-trifluoro-1-hydroxy-1-trifluoromethyl-ethyl)-phenyl]-benzenesulfonamide (Schultz, Joshua R., Genes & Development (2000), 14(22), 2831-2838), was dosed at 1.0 uM and served as a positive control. […] Results of antagonist analysis are expressed as % antagonism and IC50 (in μM).
Total cellular RNA was isolated from treated cells cultured in 96-well plates using PrepStation 6100 (Applied Biosystems, Foster City, Calif.), according to the manufacturer's recommendations. RNA was resuspended in ribonuclease-free water and stored at −70° C. prior to analysis. RNA concentrations were quantitated with RiboGreen test procedure, #R-11490 (Molecular Probes, Eugene, Oreg.).
Gene-specific mRNA quantitation was performed by real-time PCR with the Perkin Elmer Corp. chemistry on an ABI Prism 7700 Sequence detection system (Applied Biosystems, Foster City, Calif.) according to the manufacturer's instructions. Samples (50-100 ng) of total RNA were assayed in duplicate or triplicate in 50 μl reactions using one-step RT-PCR and the standard curve method to estimate specific mRNA concentrations. Sequences of gene-specific primer and probe sets were designed with Primer Express Software (Applied Biosystems, Foster City, Calif.). […] RT and PCR reactions were performed according to PE Applied Biosystem's protocol for Taqman Gold RT-PCR or Qiagen's protocol for Quantitect probe RT-PCR. Relative levels of ABCA1 mRNA are normalized using GAPDH mRNA or 18S rRNA probe/primer sets purchased commercially (Applied Biosystems, Foster City, Calif.).
Mean, standard deviation and statistical significance of duplicate evaluations of RNA samples were assessed using ANOVA, one-way analysis of variance using SAS analysis.
For orientation: Real-time PCR tracks product formation cycle by cycle.

The IC50 is the concentration needed to halve the response being measured. Lower therefore signals greater potency. Usually EC50 stands for the concentration needed to bring the measured effect to its halfway point. Consider `Cc1nc2c(C(F)(F)F)cccc2n1-c1cccc(OCc2cccc(S(C)(=O)=O)c2)c1` [Example 107, 2-methyl-1-(3-{[3-(methylsulfonyl)benzyl]oxy}phenyl)-4-(trifluoromethyl)-1H-benzimidazole], for which the results for the half-inhibitory concentration (IC50) at human LXRβ and on human LXRα were 120 nM and 1960 nM, respectively. Moreover, in the experiment on ABCA1 gene, the EC50 was found to be 3.53 µM.
